From patent US10314920B2, “Therapeutic dendrimers” (ASTRAZENECA AB, priority 2017, dated 2019) come the findings set out here.

Converted amounts (≈) assume the structure as drawn. “And” between values parts separate entries of the source, which are not always exact repeats. Equal values may be shown once. “Also recorded” adds a separate entry of the source. Some results are limits rather than exact numbers.

Data set [1] deals with NCI-H1048 tumor cells. Kind of data set: In vivo anti-tumor activity in human small cell lung cancer tumor model (NCI-H1048). Also noted: species or system mouse. Conditions: 15 mg/kg daily (qd), oral. The method, then: AZD2014 was formulated in 0.5% hydroxypropyl methylcellulose/0.1% Tween 80 and dosed oral in a volume of 10 ml/kg 5×10^6 NCI-H1048 tumor cells were injected subcutaneously in the right flank of C.B.-17 SCID female mice in a volume of 0.1 mL containing 50% matrigel. Tumor volume (measured by caliper) was calculated using the formula:length (mm)×width (mm)^2×0.52. For efficacy studies, mice were randomized based on tumor volume and growth inhibition was assessed by comparison of the differences in tumor volume between control and treated groups. Dosing began when mean tumor volume reached approximately 124 mm^3.

Data set [2] has as its system RS4;11 Acute Lymphoblastic Leukemia Xenograft. Kind of data set: Efficacy of Compound A (HP-β-CD) at different infusion length in RS4;11 xenograft model in rats. Format: in vivo, rat. As to conditions: single IV 5 hr infusion, 30% HP-β-CD. The method, then:
Rag2−/− rats purchased from (SAGE) were inoculated with RS4;1 (10×10^6 cells/rat). When tumors grew to approximately […], rats were randomized to vehicle control (30% HP-β-CD) or Compound A 5 mg/kg in Vehicle 1) delivered as a single IV 30 min infusion (FIG. 6) and Vehicle control (30% HP-β-CD) or Compound A 5 mg/kg, 3 mg/kg and 1 mg/kg in Vehicle 1 delivered as a single IV 5 hr infusion (FIG. 7). The tumor sizes were measured twice a week and calculated as: Tumor Volume=(A×B^2)/2 where A and B are the tumor length and width (in mm), respectively.

Data set [3] is described as follows: Plasma protein binding, Equilibrium Dialysis RED device, human plasma. Format: in vitro ADME. As to conditions: male, pooled frozen plasma, 30 hours at 37° C., read-out: percentage unbound. The method, then: (§1) Protein binding of Compound A (prepared as DMSO stock solutions and spiked into plasma at nominal incubation concentrations of 0.1, 1, 10 and 100 μmol/L) was evaluated in pooled frozen plasma obtained from male CD-1 mice, male Han Wistar rats, female New Zealand White rabbits, male Beagle dogs and male humans in triplicate using Equilibrium Dialysis RED device methodology (Waters N J et al., Validation of a Rapid Equilibrium Dialysis Approach for the Measurement of Plasma Protein Binding, Journal of Pharmaceutical Sciences; 2008; Volume 97; Issue 10; Pages 4586-4595, 2008). Incubations were conducted over an equilibration time of 30 hours at 37° C. Sample analysis was by HPLC-MS/MS and employed an [^13C, ^2H7] Compound A internal standard using the following bioanalytical method: […]

Data set [4] is described as follows: Plasma protein binding, Equilibrium Dialysis RED device, rat plasma. The data set is classed as in vitro ADME. As to conditions: male, Han Wistar, pooled frozen plasma, 30 hours at 37° C., read-out: percentage unbound. The method, then: as §1
Data set [5] in a line: Solubility of Compound A (Form B), shake flask method. Format: physicochemical. Conditions: thermodynamic from solid, crystalline Form B, room temperature 24 hours. The method, then: The solubility of Compound A (Form B) was determined in water and propylene glycol. […] The solutions were centrifuged using ultra centrifuge for 30 min at 40,000 rpm, supernatant were transferred to a new centrifuge tube and centrifuged for another 30 min at 40,000 rpm. The propylene glycol supernatant was then assayed using a UV-HPLC method. The water supernatant was ultra-centrifuged for a third time before assay.

Data set [6] deals with RS4;11 cells. The data set is described as follows: Efficacy of dendrimers in RS4;11 xenograft model in mice. Format: in vivo, mouse. The method, then: 5×10^6 RS4;11 cells in a total volume of 100 μl were inoculated subcutaneously at the mouse right flank. When the tumor volume reached approximately ˜350 mm^3, tumor-bearing mice were randomized into groups of 4 animals and treated with either control Vehicle (PBS) or treatment.
(§2) On specific day, for each treated group, calculate Inhibition value by formula: Inhibition %=(CG−TG)*100/(CG−1), in which “CG” means the geometric mean of rtv of the control group and “TG” means the Geometric Mean of Relative Tumor Volume (rtv) of the treated group. “CG” should use the corresponding control group of the treated group when calculated. If Inhibition >100%, then it's necessary to calculate the Regression by formula: Regression=1−TG

Data set [7] can be described thus: Log D, octanol/water shake-flask. Format: physicochemical. As to conditions: octanol / 10 mM sodium phosphate buffer pH 7.4. The method, then:
Lipophilicity (Log D) of Compound A was measured using octanol/water shake-flask principles. The aqueous solution used was a 10 mM sodium phosphate buffer with pH adjusted to 7.4. Octanol was used as the organic partitioning layer.

Data set [8] in a line: Plasma protein binding, Equilibrium Dialysis RED device, dog plasma. The data set is classed as in vitro ADME. As to conditions: male, Beagle, pooled frozen plasma, 30 hours at 37° C., read-out: percentage unbound. The method, then:
as §1

Data set [9] can be described thus: Plasma protein binding, Equilibrium Dialysis RED device, mouse plasma. The data set is classed as in vitro ADME. Conditions: male, CD-1, pooled frozen plasma, 30 hours at 37° C., read-out: percentage unbound. The method, then:
as §1

Data set [10] can be described thus: Cardiovascular telemetry studies in the rat. As to conditions: Compound A 10 mg/kg, single 30-minute intravenous infusion.
Procedure: The telemetry transmitters were placed in the abdominal muscle and the arterial blood pressure catheter was placed in the abdominal aorta. The ECG electrodes were sutured to the dorsal surface of the xiphoid process and at the anterior mediastinum.
Compound A was administered at dose levels of 0 and 10 mg/kg.
Cardiovascular parameters were recorded continuously via receivers placed beneath the home cage for at least 1 hour pre-dose and up to 72 hours post-dose. Blood samples were taken to determine the level of plasma exposure of Compound A and all dendrimers, with clinical pathology and limited tissues for target organ histopathology taken from animals dosed with the macromolecule constructs only.
The nature of data set [11]: Plasma protein binding, Equilibrium Dialysis RED device, rabbit plasma. The data set is classed as in vitro ADME. As to conditions: female, New Zealand White, pooled frozen plasma, 30 hours at 37° C., read-out: percentage unbound. The protocol: as §1
Data set [12] relates to OCI-Ly10 tumor cells. Kind of data set: In vivo anti-tumor activity in human DLBCL model (OCI-Ly10). On the set-up: species or system mouse. Conditions: single agent, 12.5 mg/kg twice a day oral. The method, then:
5×10^6 OCI-Ly10 tumor cells were injected subcutaneously in the right flank of C.B.-17 SCID female mice in a volume of 0.1 mL containing 50% matrigel. Example 9 was formulated in citrate/phosphate buffer pH 5.0, diluted 1 to 10 with 5% glucose containing 1% w/v Kolliphor HS15, and dosed as a weekly intravenous (iv) administration at a volume of 5 mL/kg at a dose of 103 mg/kg (30 mg/kg API). Acalabrutinib was formulated in 0.5% hydroxypropyl methyl cellulose/0.2% Tween 80, and dosed twice a day (bid) as an oral (po) administration at a volume of 10 mL/kg at a dose of 12.5 mg/kg. Tumor volumes (measured by caliper), animal body weight, and tumor condition were recorded twice weekly for the duration of the study. The tumor volume was calculated using the formula:length (mm)×width (mm)^2×0.52. For efficacy studies, growth inhibition from the start of treatment was assessed by comparison of the differences in tumor volume between control and treated groups. Dosing began when mean tumor size reached approximately 166 mm3.

Data set [13] relates to SuDHL-4 xenograft. The data set is described as follows: SuDHL-4 xenograft model in SCID mice, alone and with rituximab. The data set is classed as in vivo, mouse. The method, then:
The SuDHL-4 xenograft model was used to test the ability of Examples 6 and 9 to enhance the activity of rituximab in inhibiting tumor growth. When tumors grew to approximately 175-250 mm^3, mice were randomized to the following groups:
The tumor sizes were measured 2 times a week and calculated as: Tumor Volume=(A×B^2)/2 where A and B are the tumor length and width (in mm), respectively.
Table 17 summarizes the tumor growth inhibition (TIC) and tumor growth delay (T-C) values calculated as % Inhibition & % Regression. The calculation is based on the geometric mean of RTV in each group.
as §2

Molecule `CNC(=O)c1cccc(-c2ccc3c(N4CCOC[C@@H]4C)nc(N4CCOC[C@@H]4C)nc3n2)c1` [AZD2014, vistusertib, reference compound] had a tumour growth inhibition (TGI) in [1] of 84%.
Regarding `CN(CCO)CC[C@H](CSc1ccccc1)Nc1ccc(S(=O)(=O)NC(=O)c2ccc(N3CCC([C@@H](O)c4ccccc4-c4ccc(Cl)cc4)CC3)cc2)cc1S(=O)(=O)C(F)(F)F` [Compound A, 4-(4-((R)-(4′-chlorobiphenyl-2-yl)(hydroxy)methyl)piperidin-1-yl)-N-(4-((R)-4-((2-hydroxyethyl)(methyl)amino)-1-(phenylthio)butan-2-ylamino)-3-(trifluoromethylsulfonyl)phenylsulfonyl)benzamide], the “efficacy when the infusion was prolonged” value in data set [2] is reported as “Comparable efficacy”. The fraction unbound at 30 h, 100 μmol/L in data set [3] is 1.96e-05; in data set [4], below 1e-05; in data set [8] it was below 1e-05; in data set [9], 2.35e-05; in data set [11] it was 1.53e-05. In addition, the solubility at 24 h in data set [5] (organic solvent or mixture, propylene glycol) is 6120 µg/mL (≈ 6.47 mM); in data set [5] (water, final pH 8.7) it was below 1 µg/mL. For the same molecule, the “% Inhibition Day (47)” value in data set [6] (Compound A 5 mg/kg) is given as above 100%. In addition, the “% Regression Day(47)” value in data set [6] (Compound A 5 mg/kg) worked out at 90%. This molecule came in with a regression in [6] (Compound A HP-β-CD 10 mg/kg IV once) of 90%. In data set [7], this molecule yielded a logD above 3.5. Moreover, the Cardiovascular entry in data set [10] is “biphasic decrease in systolic and mean arterial blood pressure; also recorded: increases in heart rate; also recorded: decrease in QRS amplitude”. The In-life entry in data set [10] was “three rats were found dead and 3 found dead”.
Regarding `CC#CC(=O)N1CCC[C@H]1c1nc(-c2ccc(C(=O)Nc3ccccn3)cc2)c2c(N)nccn12` [acalabrutinib, reference compound], the “tumor growth inhibition (TGI)” value in [12] is on record as around 58%.
rituximab [reference compound]: the “T-C” value in data set [13] (rituximab 10 mg/kg) is above 16 days. Moreover, in data set [13] (rituximab 10 mg/kg i.p. once a week for 5 weeks), the “% Inhibition (TIC) Day (41)” value came out at 75.27%.
